Reference: US7579350B2, “Scaffolds for α-helix mimicry” (The Scripps Research Institute, priority 2005, dated 2009)

Question: For COC(=O)c1cccc(-c2nnc(-c3ccccc3[N+](=O)[O-])cc2Cc2ccccc2)c1, which melting point is on record?
Answer: Its melting point is 130 °C.
